# Results taken from publication PMC4957513, “Functional Characterization of a Hexose Transporter from Root Endophyte Piriformospora indica” (Frontiers in Microbiology, 2016).
# Experiments:
# PiHXT5 [1] = target: T1, PiHXT5 (Serendipita indica, UniProt G4TIR7); experiment: competition of […]-glucose uptake in yeast EBY.VW4000; type: cell-based; conditions: 25 μM 14C-glucose, five-fold excess of unlabelled sugar, 1 min, 30 °C; intact cells
# T1 construct: gene PIIN_05137
# PiHXT5 [2] = target: T1, PiHXT5; experiment: […]-glucose uptake in yeast EBY.VW4000, Michaelis-Menten fit; type: cell-based; conditions: pH 6.5, 50 mM potassium phosphate, 0.6 M sorbitol; intact cells; labelled compound; H+ symport; read-out: apparent Km
# T1 sequence (G4TIR7 entry or part of it): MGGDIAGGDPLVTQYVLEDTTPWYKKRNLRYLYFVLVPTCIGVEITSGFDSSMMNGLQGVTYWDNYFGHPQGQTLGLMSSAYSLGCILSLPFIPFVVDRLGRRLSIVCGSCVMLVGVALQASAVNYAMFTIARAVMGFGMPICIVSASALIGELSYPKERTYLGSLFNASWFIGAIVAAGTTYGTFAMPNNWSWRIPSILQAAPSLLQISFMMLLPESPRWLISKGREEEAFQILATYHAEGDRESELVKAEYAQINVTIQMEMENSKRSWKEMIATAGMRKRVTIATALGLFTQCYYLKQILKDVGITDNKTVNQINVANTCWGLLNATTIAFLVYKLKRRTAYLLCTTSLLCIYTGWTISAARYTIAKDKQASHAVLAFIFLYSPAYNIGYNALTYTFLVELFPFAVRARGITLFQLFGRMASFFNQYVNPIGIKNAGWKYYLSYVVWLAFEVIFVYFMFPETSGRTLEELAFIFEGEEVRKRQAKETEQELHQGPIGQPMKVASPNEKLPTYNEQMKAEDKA
Structure (SMILES),% of control 14C-glucose uptake at five-fold excess (PiHXT5 [1]),Km (PiHXT5 [2]) [µM]
OCC1(O)OC[C@@H](O)[C@@H](O)[C@@H]1O (stereo partly drawn) [D-fructose],"PiHXT5 is able to transport Glc, Fru, Xyl, Man, and Gal with decreasing affinity",
OC[C@H]1OC(O)[C@H](O)[C@@H](O)[C@H]1O (stereo partly drawn) [D-galactose],"PiHXT5 is able to transport Glc, Fru, Xyl, Man, and Gal with decreasing affinity",
OC[C@H]1OC(O)[C@H](O)[C@@H](O)[C@@H]1O (stereo partly drawn) [D-glucose],,2560 ± 180
OC[C@H]1OC(O)[C@@H](O)[C@@H](O)[C@@H]1O (stereo partly drawn) [D-mannose],"PiHXT5 is able to transport Glc, Fru, Xyl, Man, and Gal with decreasing affinity",
OC1OC[C@@H](O)[C@H](O)[C@H]1O (stereo partly drawn) [D-xylose],"PiHXT5 is able to transport Glc, Fru, Xyl, Man, and Gal with decreasing affinity",
